Test results published in patent US12161648B2, “Covalent targeting of E3 ligases” (The Regents of the University of California, priority 2018, dated 2024).
Blank lines part the entries; values can stand above or below the molecule they belong to.

Tests used:
RNF114 [1] = biological target: T1, RNF114 (Homo sapiens, UniProt Q9Y508); test: Gel-based ABPP, nimbolide probe labeling of pure RNF114; format: binding; settings: probe 10 μM, 1 h
T1 construct: Myc; FLAG; purchased Origene

RNF114 [2] = test: RNF114 ubiquitination assay; format: biochemical, human; settings: 50 μM, wild-type or C8A mutant RNF114
Description: RNF114 ubiquitination assay. Recombinant Myc-Flag-RNF114 proteins were either purified from HEK292T cells as described above or purchased from Origene (Origene Technologies Inc., TP309752). For in vitro auto-ubiquitination assay, 0.2 μg of RNF114 in 25 μL of TBS was pre-incubated with DMSO vehicle or the covalently-acting compound for 30 min at room temperature. Subsequently, 0.1 μg of UBE1 (Boston Biochem. Inc, E-305), 0.1 μg UBE2D1 (Boston Bichem. Inc, e2-615), 5 μg of Flag-ubiquitin (Boston Bichem. Inc, u-120) in a total volume of 25 μL Tris buffer containing 2 mM ATP were added to achieve a final volume of 50 μL. The mixture was incubated at 37° C. with agitation for 1.5 h. 20 μL of Laemmli's buffer was added to quench the reaction and proteins were analyzed by western blot assay.

231MFP cells = test: Survival and proliferation assay (Hoechst stain), 231MFP; format: cell-based, human; settings: 48 h
Description: Survival and Proliferation Assays. Cell survival and proliferation assays were performed as previously described using Hoechst 33342 dye (Invitrogen) according to manufacturer's protocol and as previously described^62. 231MFP cells were seeded into 96-well plates (40,000 for survival and 20,000 for proliferation) in a volume of 150 μl and allowed to adhere overnight. Cells were treated with an additional 50 μL of media containing 1:250 dilution of 1000× compound stock in DMSO. After the appropriate incubation period, media was removed from each well and 100 μl of staining solution containing 10% formalin and Hoechst 33342 dye was added to each well and incubated for 15 min in the dark at room temperature. After incubation, staining solution was removed, and wells were washed with PBS before imaging.
Survival and Proliferation Assays. Cell survival and proliferation assays were performed as previously described using Hoechst 33342 dye (Invitrogen) according to manufacturer's protocol and as previously described^14. 231MFP cells were seeded into 96-well plates (40,000 for survival and 20,000 for proliferation) in a volume of 150 μl and allowed to adhere overnight. Cells were treated with an additional 50 μL of media containing 1:250 dilution of 1000× compound stock in DMSO. […]

[3] = test system: 231MFP breast cancer cell proteomes; test: isoTOP-ABPP proteome-wide selectivity in 231MFP proteomes in vitro; format: binding, human; settings: 50 μM
RNF114 [4] = biological target: T1, RNF114; test: Gel-based ABPP, competition against JNS27 labeling of pure RNF114; format: binding; settings: covalent ligands 50 μM
Description: (§1) Gel-Based ABPP. Gel-based ABPP methods were performed as previously described^34,62,63,67. Recombinant pure human proteins were purchased from Origene. […] CuAAC was performed to append rhodamine-azide (1 μM final concentration) onto alkyne probe-labeled proteins. Samples were then diluted with 20 μL of 4× reducing Laemmli SDS sample loading buffer (Alfa Aesar) and heated at 90° C. for 5 min. The samples were separated on precast 4-20% TGX gels (Bio-Rad Laboratories, Inc.). Prior to scanning by ChemiDoc MP (Bio-Rad Laboratories, Inc), gels were fixed in a solution of 10% acetic acid, 30% ethanol for 2 hrs. Inhibition of target labeling was assessed by densitometry using ImageJ.
as §1, with “described^14.” for “described^34,62,63,67.”

231MFP tumor xenograft = 231MFP tumor xenograft growth in SCID mice; format: in vivo; settings: 50 mg/kg ip, once per day, from day 17
Description: Tumor xenograft studies. Human tumor xenografts were established by transplanting cancer cells ectopically into the flank of female C.B17 severe combined immunodeficiency (SCID) mice (Taconic Farms) as previously described^66,69 In brief, cells were washed with PBS, trypsinized, and harvested in serum-containing medium. Harvested cells were washed in serum-free media and resuspended in serum-free media at a concentration of 2.0×10^4 cells/μl, and 100 μl was injected subcutaneously into the flank of each mouse. Tumors were measured with calipers. Animal experiments were conducted in accordance with the guidelines of the Institutional Animal Care and Use Committees of the University of California, Berkeley.

RNF4 [5] = biological target: T2, RNF4 (Homo sapiens, UniProt P78317); test: Gel-based ABPP, competition against IA-rhodamine labeling of pure RNF4; format: binding
T2 construct: purchased Boston Biochem K-220
T2 sequence (P78317 1-190): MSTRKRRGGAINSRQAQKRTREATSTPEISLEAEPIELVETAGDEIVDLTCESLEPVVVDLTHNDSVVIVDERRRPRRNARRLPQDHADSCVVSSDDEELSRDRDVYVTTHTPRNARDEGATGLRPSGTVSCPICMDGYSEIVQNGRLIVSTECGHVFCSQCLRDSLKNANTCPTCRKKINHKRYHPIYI
Description: Gel-Based ABPP. Gel-based ABPP methods were performed as previously described^5,6,25,26. Pure recombinant human RNF4 was purchased from Boston Biochem (K-220). RNF4 (0.25 μg) was diluted into 50 μL of PBS and 1p L of either DMSO (vehicle) or covalently acting small molecule to achieve the desired concentration. After 30 minutes at room temperature, the samples were treated with 250 nM IA-Rhodamine (Setareh Biotech, 6222, prepared in anhydrous DMSO) for 1 h at room temperature. Samples were then diluted with 20 μL of 4× reducing Laemmli SDS sample loading buffer (Alfa Aesar) and heated at 90° C. for 5 min. The samples were separated on precast 4-20% Criterion TGX gels (Bio-Rad Laboratories, Inc.). Fluorescent imaging was performed on a ChemiDoc MP (Bio-Rad Laboratories, Inc) inhibition of target labeling was assessed by densitometry using ImageJ.

RNF4 [6] = biological target: T2, RNF4; test: LC-MS/MS analysis of covalent adduct on RNF4; format: binding; settings: 50 μM, 30 min, tryptic digests
Description: LC-MS/MS analysis of RNF4. Purified RNF4 (10 μg) was diluted into 80 μL of PBS and treated for 30 min with DMSO or compound (50 μM). […] The samples were precipitated by additional of 20 μL of 100% (w/v) TCA and combined pairwise before cooling to −80 C for one hour.

RNF4 [7] = biological target: T2, RNF4; test: RNF4 in vitro auto-ubiquitination assay; format: biochemical; settings: 100 μM pre-incubation
Description: RNF4 ubiquitination assay. […] Subsequently, UBE1 (50 nM, Boston Biochem, E-305), UBE2D1 (400 nM Boston Bichem, E2-615), Flag-ubiquitin (4000 nM, Boston Biochem, U-120) and ATP (200 μM) were added in ubiquitination assay buffer bring the total volume to 30 μL. The mixture was incubated at RT for 30 min before quenching with 10 μL of 4× Laemmli's buffer. Ubiquitination activity was measured by separation on an SDS-PAGE gel and western blotting as previously described.

T1 sequence (Q9Y508 whole entry): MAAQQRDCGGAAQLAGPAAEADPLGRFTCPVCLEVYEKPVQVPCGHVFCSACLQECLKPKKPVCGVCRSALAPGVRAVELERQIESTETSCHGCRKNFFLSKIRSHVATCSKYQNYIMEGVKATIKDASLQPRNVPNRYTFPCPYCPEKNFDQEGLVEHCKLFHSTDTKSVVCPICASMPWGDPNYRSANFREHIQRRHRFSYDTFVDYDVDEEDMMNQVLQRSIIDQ

- probe labeling of pure RNF114 (RNF114 [1]): reacts with pure human RNF114
Structure (SMILES): C#CCNC(=O)c1ccc(-c2occc2[C@@H]2C[C@H]3O[C@@H]4[C@@H]5OC(=O)[C@]6(C)C=CC(=O)[C@](C)([C@@H](CC(=O)OC)[C@]4(C)C3=C2C)[C@@H]56)cc1 [nimbolide probe]

- hit from covalent ligand screen against RNF114 (RNF114 [4]): promising hit
Structure (SMILES): C=CC(=O)NCc1ccc(C(=O)Nc2sc(-c3ccccc3)c(C)c2C(=O)N2CCCCC2)cc1 [EN62]
- RNF114 autoubiquitination activity (RNF114 [2]): inhibited
- 231MFP breast cancer cell survival (231MFP cells): impaired
- proteome-wide selectivity [3]: exhibited proteome-wide selectivity
- 231MFP tumor xenograft growth (231MFP tumor xenograft): attenuated

- potency to be useful as an RNF4 recruiter (RNF4 [5]): did not show sufficient potency
- hits from covalent ligand screen against IA-rhodamine labeling of RNF4 (RNF4 [5]; covalent ligands 50 μM, 30 min pre-incubation, IA-rhodamine 250 nM 1 h): potential hits
- RNF4 autoubiquitination activity (RNF4 [7]): does not inhibit
Structure (SMILES): O=C(CCl)Nc1ccc(Oc2ccccc2)cc1 [TRH 1-23]
- inhibition of IA-rhodamine labeling of RNF4 (RNF4 [5]; confirmation of screening hits): reproducible and dose-responsive inhibition
- site-of-modification within RNF4 (RNF4 [6]): covalently modified either, but not both, of the two zinc-coordinating cysteines CI32 and CI35
